Measured values published in patent US20260053146A1 (priority 2024, published 2026).
Values after ≈ are worked out from the molar mass of the structure shown.

Experiments:
physchem = details: pH 5.6
CLas = format: in vivo, Candidatus Liberibacter asiaticus; details: CLas-infected citron leaves, petioles soaked with 200 ng in buffer; D. citri nymphs 21 days; versus buffer control

Compound	MIC (L. crescens BT-1) [µg/mL]	solubility (physchem) [mg/mL]	ability of bacteria in treated leaves to infect psyllid nymphs (CLas abundance in adult psyllids, FIG. 4) (CLas)
Ac-INWLKLGKMVIDAL-NH2 [Polybia-MPII, INWLKLGKMVIDAL]	400	> 20	–
Ac-INMKASAAVAKKLL-NH2 [MP-VB1t, INMKASAAVAKKLL]	>1000	> 20	–
Ac-INWKKIASIGKEVLKAL-NH2 [PMM, INWKKIASIGKEVLKAL]	200	> 20	–
Ac-INLKAITALAKKLL-NH2 [Mastoparan-VT3, INLKAITALAKKLL]	400	≥ 10	–
Ac-INWKGIAAMAKKLL-NH2 [Mastoparan-X, INWKGIAAMAKKLL]	1000	> 20	–
Ac-INLKAIAAFAKKLL-NH2 [Mastoparan-T, INLKAIAAFAKKLL]	200	> 20	–
Ac-INWLKLGKKILGAI-NH2 [Mastoparan-R1, INWLKLGKKILGAI]	200	> 20	–
Ac-LNFKALAALAKKIL-NH2 [Mastoparan-R2, LNFKALAALAKKIL]	200	> 20	–
Ac-FDVMGIIKKIAGAL-NH2 [EMP-EF, FDVMGIIKKIAGAL]	200	< 5	–
Ac-INLKAIAAMAKKLL-NH2 [Mastoparan-like_12d, INLKAIAAMAKKLL]	400	> 20	–
Ac-INLKAIAALVKKLL-NH2 [Mastoparan-VT6]	100	> 20	–
Ac-INLKAIAPLAKKLL-NH2 [Mastoparan-VT4, INLKAIAPLAKKLL]	–	> 20	–
Ac-LKLLGIVKKVLGAI-NH2 [EMP-EM2, LKLLGIVKKVLGAI]	200	< 5	–
Ac-NLKAIAALAKKLL-NH2 [Mastoparan-VT2, NLKAIAALAKKLL]	400	> 20	–
Ac-INLLKIAKGIIKSL-NH2 [EMP-AF, INLLKIAKGIIKSL]	1000	> 20	–
Ac-VIVKAIATLSKKLL-NH2 [Mastoparan-VT5, VIVKAIATLSKKLL]	>1000	> 20	–
CC[C@H](C)[C@H](NC(=O)[C@H](CC(=O)O)NC(=O)[C@H](Cc1ccccc1)NC(C)=O)C(=O)N[C@@H](CCSC)C(=O)NCC(=O)N[C@@H](CC(C)C)C(=O)N[C@H](C(=O)N[C@@H](CCCCN)C(=O)N[C@@H](CCCCN)C(=O)N[C@H](C(=O)N[C@@H](C)C(=O)NCC(=O)N[C@@H](C)C(=O)N[C@@H](CC(C)C)C(N)=O)C(C)C)[C@@H](C)CC [EMP-ER, FDIMGLIKKVAGAL]	200 (≈ 0.132 mM)	≥ 10	–
Ac-INWKKIKSLIKAAMS-NH2 [Mastoparan-V2, INWKKIKSLIKAAMS]	200	> 20	–
Ac-IDWLKLGKMVMDVL-NH2 [Venom_protein_13b, IDWLKLGKMVMDVL]	200	< 5	–
Ac-GRILSFIKGLAEHL-NH2 [EMP-OD, GRILSFIKGLAEHL]	400	> 20	–
Ac-INWKKIKSIIKAAMN-NH2 [Mastoparan-V1, INWKKIKSIIKAAMN]	400	> 20	–
polymyxin B [PMB, reference compound]	–	–	less able to infect the psyllid nymphs
Ac-INWKKMAATALKMI-NH2 [Parapolybia-MP, INWKKMAATALKMI]	>1000	> 20	–
Ac-INWKGIAAMKKLL-NH2 [Mastoparan-like_12b, INWKGIAAMKKLL]	>1000	> 20	–
Ac-INWLKLGKKILGAL-NH2 [PDD-B, INWLKLGKKILGAL]	1000	> 20	–
Ac-INWLKLGKQILGAL-NH2 [Mastoparan-R3, INWLKLGKQILGAL]	400	> 20	–
Ac-LKLMGIVKKVLGAL-NH2 [EMP-EM1, LKLMGIVKKVLGAL]	200	≥ 10	–
Ac-INLKAIAALARNY-NH2 [Mastoparan-VT7, INLKAIAALARNY]	>200	< 5	–
Ac-INWLKLGKKMMSAL-NH2 [MP, INWLKLGKKMMSAL]	1000	> 20	–
Ac-INWKKIFEKVKNLV-NH2 [PDD-A, INWKKIFEKVKNLV]	200	> 20	–
